Test results reported in article PMC3434972 (Bioorganic & medicinal chemistry letters, 2011).
Residue numbers refer to the chain shown, from its start. Where two headings read alike, the source gives them in different places.

Experiments:
hM1 [1] = biological target: T1, hM1 (Homo sapiens, UniProt P11229); test: hM1 antagonist calcium mobilization assay; assay type: cell-based; details: for fold loss in potency/activity relative to ML012: hM1, versus ML012; for hM1 antagonist activity in words: highest concentration tested 30 μM
T1 sequence (P11229 1-460): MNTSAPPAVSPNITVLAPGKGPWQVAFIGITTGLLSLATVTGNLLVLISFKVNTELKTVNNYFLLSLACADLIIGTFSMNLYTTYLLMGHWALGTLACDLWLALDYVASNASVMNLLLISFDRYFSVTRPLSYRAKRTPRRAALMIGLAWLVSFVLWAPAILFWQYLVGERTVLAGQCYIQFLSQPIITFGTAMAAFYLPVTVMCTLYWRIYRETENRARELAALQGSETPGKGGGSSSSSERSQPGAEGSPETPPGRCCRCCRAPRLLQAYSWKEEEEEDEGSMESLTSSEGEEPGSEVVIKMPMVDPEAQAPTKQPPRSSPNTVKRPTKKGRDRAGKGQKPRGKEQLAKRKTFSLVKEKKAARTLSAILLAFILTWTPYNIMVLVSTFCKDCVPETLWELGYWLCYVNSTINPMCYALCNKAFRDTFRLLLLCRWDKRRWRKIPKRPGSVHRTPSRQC

rM1 = biological target: T2, rM1 (Rattus norvegicus, UniProt P08482); test: rat M1 antagonist calcium mobilization assay; assay type: cell-based
T2 sequence (P08482 1-460): T1 sequence (P11229 1-460) with A5V, T254S, P309S, R320K, A337G, I413V

rat M1–5 receptors = test: selectivity across the rat mAChRs, calcium mobilization assay; assay type: cell-based; details: Figure 4
[2] = rat pharmacokinetics and CNS exposure; assay type: in vivo; details: dosed orally at 10 mg/kg
[3] = in vitro DMPK prediction of clearance; assay type: in vitro ADME
hM1 [4] = biological target: T1, hM1; details: read-out: IC50 for ML012 previously reported; cited from earlier work
[5] = system: pilocarpine-induced seizures; details: rodent models; cited from earlier work
contextual freezing = details: at doses that reduced seizures; cited from earlier work

O=C(CCNS(=O)(=O)c1cccc2nsnc12)N1CCN(c2ccccn2)CC1 [Compound 6d]
fold loss in potency/activity relative to ML012 (hM1 [1]): roughly 14 fold

O=S(=O)(NCCCN1CCN(c2ccncc2)CC1)c1cccc2nsnc12 [Compound 7]
fold loss in potency/activity relative to ML012 (hM1 [1]): greater than 14 fold

O=C(C(F)CNS(=O)(=O)c1cccc2nonc12)N1CCN(c2ccncc2)CC1 (stereo not shown) [Compound 9]
fold decrease in potency relative to 13b (hM1 [1]; hM1, versus 13b): roughly 2 fold

C[C@H](CC(=O)N1CCN(c2ccncc2)CC1)NS(=O)(=O)c1cccc2nonc12 [Compound 10]
hM1 antagonist activity in words (hM1 [1]): completely inactive

CN(CCC(=O)N1CCN(c2ccncc2)CC1)S(=O)(=O)c1cccc2nsnc12 [Compound 12]
fold loss in potency/activity relative to ML012 (hM1 [1]): greater than 14 fold

O=C(CCNS(=O)(=O)c1cccc2nonc12)N1CCN(c2ccc(Br)cn2)CC1 [Compound 13a]
fold decrease in activity relative to sulfur analog 6j (hM1 [1]; hM1, versus 6j): 3 fold

O=C(CCNS(=O)(=O)c1cccc2nonc12)N1CCN(c2ccncc2)CC1 [Compound 13b]
IC50 (hM1 [1]): 4500 nM | fold loss in potency/activity relative to ML012 (hM1 [1]): 4 fold

O=C(CCNS(=O)(=O)c1cccc2ccccc12)N1CCN(c2ccc(Br)cn2)CC1 [Compound 13i]
hM1 antagonist activity in words (hM1 [1]): complete loss of activity

O=C(CCNS(=O)(=O)c1cccc2scnc12)N1CCN(c2ccncc2)CC1 [Compound 13j]
hM1 antagonist activity in words (hM1 [1]): inactive

O=C(CCNS(=O)(=O)c1cccc2ncccc12)N1CCN(c2ccncc2)CC1 [Compound 13l]
EC50 (rM1): 180 nM | selectivity for the M1 receptor over the M2–5 subtypes (rat M1–5 receptors): very high selectivity | CNS concentrations / CNS exposure [2]: undetectable | in vitro DMPK prediction of clearance [3]: high clearance

O=C(CCNS(=O)(=O)c1cccc2nsnc12)N1CCN(c2ccncc2)CC1 [ML012]
EC50 (rM1): 240 nM | selectivity for the M1 receptor over the M2–5 subtypes (rat M1–5 receptors): selectively antagonize the M1 mAChR relative to the M2–5 mAChRs | IC50 (hM1 [4]): 132 nM | effect on pilocarpine-induced seizures [5]: reduced pilocarpine-induced seizures | deficits in contextual freezing (contextual freezing): did not induce deficits in contextual freezing
